These results are taken from patent US20120065203A1, “Methods of Reducing Serum Glucose and Triglyceride Levels and for Inhibiting Angiogenesis Using Substituted Indolealkanoic Acids” (The Institute for Pharmaceutical Discovery, LLC, priority 1998, published 2012).

In test [1] the target is human aldose reductase (hALR2) (Homo sapiens, UniProt P15121). Nature of the test: Inhibition of human aldose reductase (hALR2). In kind it is biochemical. As for the experimental part:
Representative compounds of the invention were tested for their potency, selectivity and efficacy as inhibitors of human aldose reductase.

Test [2] has as its system streptozotocin-induced diabetic rats. As to conditions: STZ diabetic rats, 10 mg/kg daily by gavage, listed as test compound. The procedure: Diabetes is induced in animals as follows: male Sprague-Dawley rats (150 g), supplied by Harlan Teklad (Madison, Wis.), are allowed to acclimate for 1 week and water is supplied ad libitum. […] STZ, 40 mg/kg, is prepared in 0.03 M citrate buffer, pH 4.5 and administered intraperitoneally after a 24-hr fast. Control animals receive citrate buffer.
Two hours after STZ injection, food is returned. Two days following STZ injection, blood glucose is measured and animals with <300 mg/dL are eliminated. Animals with blood glucose levels ≧300 mg/dL are randomized into diabetic control and treated groups.
In all, three groups of animals are monitored and compared. The groups comprise a (nondiabetic) control group (n=5); an untreated diabetic (control) group (n=7); and treated diabetic group (n=7). […] The nondiabetic and diabetic control groups are administered vehicle.
After the final dose (Day 8), all groups of animals are fasted for 4 hours and anesthetized with CO2, and blood is collected by cardiac puncture into EDTA tubes. The plasma is separated from the red blood cells by centrifugation. Plasma triglyceride levels are quantitated on an automated COBAS chemistry system utilizing the Roche reagent for Triglycerides (Cat #44119). This assay is a standard spectrophotometric enzyme assay that uses a Trinder reaction to measure the final product (Trinder, P., Ann Clin Biochem 6: […], 1969). […]

In the next test the test system is diabetic (db/db) mice. As to conditions: for mean percent change in glucose (lowering): after four weeks. The procedure:
The mice are obese, extremely hyperglycemic and also hyperinsulinemic.
Male db/db mice (8 weeks old) were obtained from Jackson Laboratories and were allowed to acclimate for 1 week before the experiment commenced. A sample of blood was collected from the tail after which plasma glucose was isolated by centrifigation and the glucose concentration was measured in the plasma enzymatically on the COBAS automated clinical_analyzer equipped with a glucose kit that utilized hexokinas to quantitate the amount of glucose in a sample (Roche Diagnostic Systems, kit #47382). Mice with the lowest plasma glucose values were removed from the study and the remaining mice were randomized according to their individual plasma glucose values into 3 treatment groups (n=12 per group), control untreated db/db mice, 100 mg/kg/d compound treated db/db mice and 300_mg/kg/d compound treated db/db mice.
Treatment with the compound was carried out for 4 weeks during which time blood glucose levels were measured weekly from the tail using the One Touch II blood glucose meter (Lifescan, Inc). The blood glucose values of mice in the compound treated groups was compared to the blood glucose values of mice from the control untreated group by an analysis of variance followed by Dunett's Comparison Test (one-tailed).

Test [3] relates to STZ treated diabetic minipigs. Kind of test: Wound healing in STZ treated diabetic minipigs. In kind it is in vivo, minipig. As to conditions: STZ diabetic minipigs with wounds, compared with untreated controls. An excerpt:
These animals are compared with control STZ diabetic minipigs also having wounds but that are not treated with the compound.

pIC50: −log10 of the molar value. Like-named read-outs stand apart in the source and are kept apart here.

Source text for rat aortic ring: Rats (less than 6 weeks old, approx 150 grams) are individually sacrificed via carbon dioxide asphyxiation. The abdomen and thorax are opened along the midline with scissors using known sterile techniques. The animals are placed recumbent on their right side, to allow displacement of the viscera. The abdominal and thoracic sections of the aorta are carefully separated from the dorsum by dissection along the longitudinal axis of the aorta. The isolated aorta is placed in a petri dish containing sterile, ice cold Hanks' balanced salt solution (Gibco BRL-Life Technologies, Rockville, Md.) for further micro-dissection under a dissecting microscope. The lumenal content of the aorta is dislodged by injection with Hanks, balanced salt solution via a syringe. Adherent adipose, loose connective tissue and segments of intercostal arteries are trimmed from the exterior of the aorta using sterile microsurgical instruments. The aorta is transferred to a clean petri dish containing fresh Hanks' balanced salt solution and the entire aorta is sectioned into 1 to 2 mm thick rings. The two end rings and any other rings which appear damaged are discarded. The aorta is maintained submerged in Hanks' balanced salt solution on ice while plating onto a 48-well plate.
Using a 48-well tissue culture plate, which is chilled on ice, in a tissue culture hood a 120 microliters of thawed Matrigel® (Becton Dickinson Labware, Bedford, Mass.) is plated onto each well using a sterile pipet tip. The Matrigel® is solidified by placing the culture plate for 30 minutes in a 37° C. humidified tissue culture incubator in the presence of 5% CO2. A single aortic ring is placed on edge, with one of its two cut surfaces resting on the Matrigel®, at the center of each well using a sterile curved forcep. The layout of the culture plate is such that the rings from multiple animals are placed in a single column on the plate. In this fashion, the experimental results represent observations based on six animals (n=6). […]

For orientation: pIC50 means the IC50 on a negative log10 scale, so that one unit is a factor of ten. The compound `O=C(O)Cn1cc(Cc2nc3ccc(F)cc3s2)c2ccccc21` [Example 24, 3-[6-Fluorbenzothiazole-2-yl]methyl-indole-N-acetic Acid] gave a pIC50 in test [1] of 5.98.

Consider `Cc1c(Cc2nc3c(F)c(F)cc(F)c3s2)c2ccccc2n1CC(=O)O` [Example 1, 2-methyl-3-(4,5,7-trifluorobenzothiazol-2-yl)methyl-indole-N-acetic acid], for which the “Linear Microvascular Growth” value in the test on rat aortic ring (Intervention (Days 4-6), compound only on days 4-6, mean ± SD) was 1.97 ± 0.66, n = 5 mm; with rat aortic ring (Prevention (Days 1-6), 50 micromolar, mean ± SD), 1.46 ± 0.48, n = 6 mm; in the test on rat aortic ring (Removal: 50 micromolar days 1-3, compound removed days 4-6, mean ± SD) it was 2.31 ± 0.71, n = 5 mm. The “Triglyceride lowering compared to diabetic” value in test [2] is listed as 68%. For the same compound, the Blood glucose came out at 323 ± 79 mg/dL in the test on diabetic (db/db) mice (100 mg/kg/d in diet, Week 0, mean ± SD); 284 ± 75 mg/dL in the test with diabetic (db/db) mice (100 mg/kg/d in diet, Week 2, mean ± SD); 303 ± 79 mg/dL with diabetic (db/db) mice (100 mg/kg/d in diet, Week 4, mean ± SD); 313 ± 52 mg/dL in the test with diabetic (db/db) mice (300 mg/kg/d in diet, Week 0, mean ± SD); 240 ± 85 mg/dL in the test on diabetic (db/db) mice (300 mg/kg/d in diet, Week 2, mean ± SD). Further, the “mean percent change in glucose (lowering)” value was determined as 12% in the test on diabetic (db/db) mice (100 mg/kg/d) and 40% with diabetic (db/db) mice (300 mg/kg/d). Besides, in test [3], the “degree of wound healing” value is given as “significant increase in the degree of wound healing”.
